Data reported in patent publication US20060200330A1, “Methods and systems for modeling and simulating biochemical pathways” (KOREA INSTITUTE OF SCIENCE AND TECHNOLOGY, priority 2005, published 2006).

Experiments:
MAPK pathway = settings: cited from earlier work; for effect on ERK activation, as reported: literature report
ERK = experiment: Western blot of ERK activation (anti-diphosphorylated ERK) in PC12 cells; type: cell-based; settings: PC12 cells, PD09859 10 μM or U0126 0.01-10 μM, 100 ng/ml EGF or NGF for 5 min
Description: (§1) In order to confirm the simulation, PC12 cells treated with EGF (100 ng/ml) were used to measure the time data tracking the activation levels of MEK and ERK, respectively. […] Western blot analysis was performed as follows. PC12 cells were treated with 100 ng/ml EGF for 0 to 120 min. Dissolved protein samples were reacted by using anti-phosphorylated MEK antibodies and anti-diphosphorylated ERK antibodies. Then, the resultant was reacted with anti-HRP (horse radish peroxidase)-conjugated secondary antibodies and confirmed the presence of a band via ECL chemoluminscence.
(§2) PC12 cells treated with EGF or nerve growth factor (NGF) were examined to evaluate the efficacies of PD09859 (10 μM) and U0126 (0.01-10 μM) in respect of MEK and ERK activation. Western blot analysis was performed as follows. PC12 cells treated with PD09859 and U0126 were treated with 100 ng/ml of EGF or NGF for 5 min. Then, the resulting protein sample was separated by performing SDS/PAGE, and then blotted by using anti-phosphorylated MEK and anti-diphosphoryated ERK antibodies. Again, the resultant was blotted by using anti-HRP (horseradish peroxidase) conjugated secondary antibodies and identified in bands by ECL chemo-luminescence.

MEK = experiment: Western blot of MEK activation (anti-phosphorylated MEK) in PC12 cells; type: cell-based; settings: PC12 cells, U0126 0.01-10 μM, 100 ng/ml EGF or NGF for 5 min
Description: as §1, §2

Compound | effect on ERK activation, as reported (MAPK pathway) | ERK activation / intracellular ERK phosphorylation (ERK) | MEK activation (MEK) | inhibition of MAPK pathway compared with the other inhibitor (MAPK pathway; U0126 versus PD09859, literature report)
COc1cccc(-c2cc(=O)c3ccccc3o2)c1N [PD98059] | suppress ERK activation | not suppressed | – | –
N#CC(=C(/N)Sc1ccccc1N)/C(C#N)=C(\N)Sc1ccccc1N [U0126] | suppress ERK activation | suppressed by the MEK activity dose-dependently | not suppressed | more effective and specific
